Reference: paper PMC5077133, “Towards Development of Small Molecule Lipid II Inhibitors as Novel Antibiotics” (PLoS ONE, 2016)

Tested on: Enterococcus faecalis EF1509
Test: Murine peritoneal sepsis model
Assay type: in vivo, C57BL/6J mice
Settings: 6jc48-1 100 mg/kg, ampicillin 300 mg/kg
Source text: Care of the mice met or exceeded the standards set forth by the National Institute of Health Guide for the care and use of laboratory animals and the AVMA panel on Euthanasia. All procedures in this study have been approved by the Institutional Animal Care and Use Committee (IACUC) at the University of Maryland Baltimore School of Medicine (Protocol number 02122005). Adult C57BL/6J mice (~18 grams, 8–10 weeks old) were used for all experiments. Mice were obtained from the Jackson Laboratory (Bar Harbor, Maine, USA) and housed in the IHV SPC animal core facility. Mice were fed standard chow (Harlan Laboratories) and water ad libitum. […] Infected animals (n = 5) were subsequently treated by intraperitoneal injection 30 min post-infection with 100 mg/kg of compound in 300 μL sterile saline solution, 5% Tween 80, 10% DMSO (V/V), ampicillin (300mg/kg), or vehicle (sterile saline solution, 5% Tween 80, 10% DMSO (V/V)) as positive and negative controls, respectively. Animals were closely observed during a period of 24 h and mice that show signs of severe sepsis were humanely euthanized. Mice were anesthetized by intraperitoneal injection of ketamine (80-100mg/kg) and xylazine (10–15 mg/kg). Once sedated, blood was collected by cardiac puncture. Immediately after blood collection the mice were euthanized by cervical dislocation. Spleens were harvested aseptically, weighed and homogenized in 500 μl of sterile saline solution using an IKA T10 basic disperser (IKA, Wilmington NC). Spleen homogenates were serially diluted and plated onto BHI agar plates. Bacterial counts were determined following 24 h incubation at 37°C and expressed as CFU per gram for spleen.
We established a murine model for sepsis to evaluate the efficacy of 6jc48-1 as an antibiotic agent in vivo. […] Based on the data obtained in the pharmacokinetic analysis, mice (n = 5) were inoculated intraperitoneally with E. faecalis EF1509 (~5 x 10^8 CFU/ animal) and treated after 30 min with compound 6jc48-1 (100 mg/kg IP), ampicillin (300 mg/kg IP) or vehicle. Animals were monitored for survival and after 24 h spleen samples were collected and analyzed for the presence of bacteria. Bacterial counts were determined by plating serial dilutions on BHI agar plates and compared to control treatment with ampicillin as measures of efficacy (Fig 5).

CN(C)c1ccc(/C=C/c2cc(-c3ccc(Br)cc3)cc(-c3ccc(Br)cc3)[o+]2)cc1 [6jc48-1]
Bacterial counts in spleen (IP treatment 30 min post-infection, spleen collected after 24 h): significant bacterial clearance
Survival of infected animals (n = 5, IP treatment 30 min post-infection, length of the experiment (24 h)): Four out of five
